Holding throughout (format): in vivo
Experiment [1] concerns paraquat resistant Lolium biotype RL 2. Briefly: Greenhouse visual assessment of percentage control, Example 1. The conditions noted are these: 14 days after applying. On the procedure: (§1) Aqueous herbicidal compositions comprising water and paraquat alone at various application rates, glufosinate ammonium alone at various application rates and compositions containing water and combinations of these two herbicides were applied over certain paraquat resistant plants. Ammonium sulphate was included in all of the compositions at a concentration of 1% w/v. The effectiveness of the composition in controlling the plants was assessed visually 14 days after applying the herbicide. The assessment was made as a percentage control −0% representing no damage and 100% representing death of all the plants. The plants used were two paraquat resistant Lolium biotypes (referred to as RL 1 and RL 2, collected in South Africa). The plants were grown in a greenhouse to the two-three true leaves stage before the herbicide was applied. Three replicates of each treatment were carried out.
(§2) The results were analysed using the Colby formula which generates an expected level of control from the results obtained by using the individual components alone. This was compared with the actual level of control. The Colby formula predicts that the expected percentage level of control E for a particular combination of components is obtained as follows, in which P1 and P2 are the levels of control obtained by using the components alone
(§3) The figures given in the Synergy column in the table below are the difference between the predicted level of control and the actual level of control. A figure of zero means that the actual result is as predicted by the Colby equation. Any number above zero represents evidence of synergy. Numbers below zero may represent antagonism.

Experiment [2] deals with paraquat resistant Lolium biotype RL 1. The description is as above. The conditions noted are these: 14 days after applying. On the procedure: as §1, §2, §3
Experiment [3] relates to paraquat susceptible ryegrass (Lolium rigidum). Kind of experiment: Glasshouse study, visual percentage control, Example 2. The conditions noted are these: Paraquat Susceptible Population, 28 days after applying. On the procedure: (§4) A glasshouse study was conducted with two biotypes of ryegrass (Lolium rigidum), one paraquat resistant and the other paraquat susceptible. The plants (3 leaf stage) were planted in pots at a density of approximately 14,000 plants/m^2 to simulate field infestation levels. The treatments were based on commercial formulations of paraquat and glufosinate were diluted in water including the adjuvants AMS (5%) and Agral 90 (0.25%). The treatments were applied to the plants in a spray volume equivalent to 400 lts/ha. Each treatment was replicated three times. The effectiveness of the treatments in controlling the plants was assessed visually 28 days after applying the herbicide. The assessment was made as a percentage control −0% representing no damage and 100% representing death of all the plants.

Experiment [4] deals with paraquat resistant ryegrass (Lolium rigidum). The description is as above. The conditions noted are these: Paraquat Resistant Population, 28 days after applying. On the procedure:
as §4

Experiment [5] shares this test system. Kind of experiment: Glasshouse test of sequential (split) application, visual percentage control, Example 3. The conditions noted are these: 28 days after the initial application. On the procedure: A glasshouse test was conducted to examine the effect of applying the products sequentially (ie. in a split application), using paraquat resistant ryegrass (Lolium rigidum) plants. The plants were planted in pots and at the time of the initial application they were at the 4½ leaf stage. The treatments were based on commercial formulations of paraquat and glufosinate were diluted in water including the adjuvants AMS (5%) and Agral 90 (0.25%). The treatments' were applied to the plants in a spray volume equivalent to 400 lts/ha. Each treatment was replicated 3 times. The effectiveness of the treatments in controlling the plants was assessed visually 28 days after the initial application date. The assessment was made as a percentage control −0% representing no damage and 100% representing death of all the plants.

Setting [6] is: glufosinate ammonium 50 g/ha alone.
[7] abbreviates: glufosinate ammonium 100 g/ha alone.
Setting [8] is: glufosinate ammonium 200 g/ha alone.
Where [9] appears, read: glufosinate ammonium 400 g/ha alone.
The mark [10] stands for this setting: glufosinate ammonium 600 g/ha alone.

On to `CP(=O)(O)CCC(N)C(=O)O` (racemic) [glufosinate ammonium, ammonium 4-[hydrox(methyl)phosphinoyl]-DL-homoalaninate], for which the “Average % control of RL 2” value in experiment [1] (setting [6]) was 0%; in experiment [1] (setting [7]), 0%; in experiment [1] (setting [8]) it was 2%; in experiment [1] (setting [9]) it was 33%; in experiment [1] (setting [10]), 89%. The “Average % control of RL 1” value in experiment [2] (setting [6]) was 0%; in experiment [2] (setting [7]), 0%; in experiment [2] (setting [8]), 3%; in experiment [2] (setting [9]), 2%; in experiment [2] (setting [10]) it was 78%. Moreover, the “Percentage Control” value stood at 85% in experiment [3] (Glufosinate 300 g ai/ha) and 44% in experiment [4] (Glufosinate 300 g ai/ha). Moreover, the “% Control” value in experiment [5] (150 g ai/ha) is 0%; in experiment [5] (200 g a/ha), 33%; in experiment [5] (300 g ai/ha), 83%.
In the case of `C[n+]1ccc(-c2cc[n+](C)cc2)cc1` [Paraquat, 1,1′-dimethyl-4,4′-bipyridylium cation], the “Average % control of RL 2” value stood at 0% in experiment [1] (paraquat 10 g/ha alone); 0% in experiment [1] (paraquat 20 g/ha alone); 0% in experiment [1] (paraquat 60 g/ha alone); 0% in experiment [1] (paraquat 80 g/ha alone); 0% in experiment [1] (paraquat 400 g/ha alone); 7% in experiment [1] (paraquat 1200 g/ha alone). Further, the “Average % control of RL 2” value is given as 3% in experiment [1] (paraquat 2000 g/ha alone) and 42% in experiment [1] (paraquat 4000 g/ha alone). In addition, the “Average % control of RL 1” value in experiment [2] (paraquat 10 g/ha alone) is 0%; in experiment [2] (paraquat 20 g/ha alone), 0%; in experiment [2] (paraquat 60 g/ha alone) it was 0%; in experiment [2] (paraquat 80 g/ha alone) it was 17%; in experiment [2] (paraquat 400 g/ha alone) it was 33%; in experiment [2] (paraquat 1200 g/ha alone) it was 33%. For the same compound, the entries for the “Average % control of RL 1” value in experiment [2] (paraquat 2000 g/ha alone) and in experiment [2] (paraquat 4000 g/ha alone) were 98% and 100%, respectively. Also, the figures for the “Percentage Control” value in experiment [3] (Paraquat 600 g ai/ha) and in experiment [4] (Paraquat 600 g ai/ha) were 100% and 29%, respectively. Also, in experiment [5] (600 g ai/ha), the “% Control” value came out at 58%.

These data come from patent publication US20090305890A1, “METHOD OF CONTROLLING PLANTS” (SYNGENTA LIMITED, priority 2005, published 2009).
